# Results published in publication PMC9067983, “Identification of highly selective type II kinase inhibitors with chiral peptidomimetic tails” (Journal of Enzyme Inhibition and Medicinal Chemistry, 2022).
# Where a SMILES comes first, the peptide text is derived from it. [ ]: non-standard residue; d: D form. The star is where a group is joined. X1 = Cc1ccc(Nc2ncc3c(n2)N(C)C(=O)N(c2cc(C(=O)*)ccc2C)C3)cn1; Aib = CC(C)(N)C(=O)O
# Key:
# Lck = target: T1, Lck (Homo sapiens, UniProt P06239); assay: Biochemical IC50 on Lck at Km and 1 mM ATP
# T1 construct: purchased Reaction Biology Corp
# Description: (§1) Full panel kinase profiling and kinase IC50 measurement were performed by using Reaction Biology Corp. (San Diego, USA).
# Lck (Y394) = assay: Western blot of p-Lck (Y394) in anti-CD3-treated Jurkat cells; format: cell-based; conditions: anti-CD3-treated Jurkat T cells, 10, 50, or 100 μM, 30 min
# Description: Figure 6. Effect of 7a on the Lck (Y394) activation in anti-CD3-treated Jurkat cells. After treatment with CD3 antibody for coating in plates, cells were seeded and then treated with various concentrations of 7a (10, 50, or 100 μM) or A770041 (1 μM) used as a positive control. The phosphorylation of Lck tyrosine in Jurkat cells was activated by anti-CD3 mAb. Total cellular protein was resolved by SDS-PAGE, transferred to PVDF membranes, and detected with specific p-Lck (Y394) antibody. β-Actin was used as an internal control.
# Jurkat cells were purchased from the Korea Cell Line Bank (Seoul, Republic of Korea) and maintained in RPMI-1640 medium containing 10% FBS, streptomycin sulphate, penicillin, HEPES, and sodium bicarbonate in a 5% CO2 atmosphere at 37 °C. Jurkat cells were stimulated with 1 μg/ml of plate-bound anti-CD3 mAb (clone HIT3a, BD Bioscience) and then incubated with KITS 1–001 (10, 50, or 100 μM) for 30 min.
# The protein of Jurkat cells was extracted using a PRO-PREP (Intron Biotechnology, Seoul, Republic of Korea). The protein concentration was determined using Bio-Rad protein assay reagent according to the manufacturer’s instruction and BSA (Bio-Rad, Hercules, CA, USA) was used as a standard for quantification. […] The membranes were analysed using an enhanced chemiluminescence (ECL) substrate and imaged by LAS-4000 luminescent image analyser (FUJIFILM, Tokyo, Japan).
# DDR1 = target: T2, DDR1 (Homo sapiens, UniProt Q08345); assay: In vitro kinase assay (IC50); format: biochemical
# T2 construct: purchased Reaction Biology Corp
# Description: as §1
# c-Src = target: T3, c-Src (Homo sapiens, UniProt P12931); assay: In vitro kinase assay (IC50); format: biochemical
# T3 construct: purchased Reaction Biology Corp
# Description: as §1
# Yes = target: T4, Yes (Homo sapiens, UniProt P07947); assay: In vitro kinase assay (IC50); format: biochemical
# T4 construct: purchased Reaction Biology Corp
# Description: as §1
# Fgr = target: T5, Fgr (Homo sapiens, UniProt P09769); assay: In vitro kinase assay (IC50); format: biochemical
# T5 construct: purchased Reaction Biology Corp
# Description: as §1
# Abl1 = target: T6, Abl1 (Homo sapiens, UniProt P00519); assay: In vitro kinase assay (IC50); format: biochemical
# T6 construct: purchased Reaction Biology Corp
# Description: as §1
# Blk = target: T7, Blk (Homo sapiens, UniProt P51451); assay: In vitro kinase assay (IC50); format: biochemical
# T7 construct: purchased Reaction Biology Corp
# Description: as §1
# p38a = target: T8, p38a (Homo sapiens, UniProt Q16539); assay: In vitro kinase assay (IC50); format: biochemical
# T8 construct: purchased Reaction Biology Corp
# Description: as §1
# T1 sequence (P06239 whole entry): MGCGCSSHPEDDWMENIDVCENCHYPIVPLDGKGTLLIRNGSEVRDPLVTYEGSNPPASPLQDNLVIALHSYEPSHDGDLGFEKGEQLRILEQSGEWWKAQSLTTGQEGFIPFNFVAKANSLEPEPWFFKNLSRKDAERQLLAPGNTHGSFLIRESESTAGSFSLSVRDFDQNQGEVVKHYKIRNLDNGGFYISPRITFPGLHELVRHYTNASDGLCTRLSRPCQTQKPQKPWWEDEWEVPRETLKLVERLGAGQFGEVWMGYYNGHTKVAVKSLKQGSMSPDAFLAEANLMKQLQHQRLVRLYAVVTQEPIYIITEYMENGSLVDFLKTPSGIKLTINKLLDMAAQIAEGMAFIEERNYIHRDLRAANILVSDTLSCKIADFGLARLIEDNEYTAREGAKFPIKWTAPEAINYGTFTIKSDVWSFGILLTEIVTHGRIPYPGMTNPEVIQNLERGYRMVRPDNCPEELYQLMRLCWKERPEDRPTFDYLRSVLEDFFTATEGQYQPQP
# T8 sequence (Q16539 whole entry): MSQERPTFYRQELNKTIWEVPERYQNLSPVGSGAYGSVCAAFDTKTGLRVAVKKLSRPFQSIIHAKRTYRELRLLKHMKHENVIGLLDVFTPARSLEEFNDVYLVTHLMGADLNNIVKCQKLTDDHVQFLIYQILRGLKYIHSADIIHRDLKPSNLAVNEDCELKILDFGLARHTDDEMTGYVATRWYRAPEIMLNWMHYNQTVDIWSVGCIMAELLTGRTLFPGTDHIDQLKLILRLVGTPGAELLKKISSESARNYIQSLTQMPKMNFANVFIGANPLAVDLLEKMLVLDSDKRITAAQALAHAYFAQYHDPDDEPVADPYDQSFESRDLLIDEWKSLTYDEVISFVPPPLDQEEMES
# T7 sequence (P51451 whole entry): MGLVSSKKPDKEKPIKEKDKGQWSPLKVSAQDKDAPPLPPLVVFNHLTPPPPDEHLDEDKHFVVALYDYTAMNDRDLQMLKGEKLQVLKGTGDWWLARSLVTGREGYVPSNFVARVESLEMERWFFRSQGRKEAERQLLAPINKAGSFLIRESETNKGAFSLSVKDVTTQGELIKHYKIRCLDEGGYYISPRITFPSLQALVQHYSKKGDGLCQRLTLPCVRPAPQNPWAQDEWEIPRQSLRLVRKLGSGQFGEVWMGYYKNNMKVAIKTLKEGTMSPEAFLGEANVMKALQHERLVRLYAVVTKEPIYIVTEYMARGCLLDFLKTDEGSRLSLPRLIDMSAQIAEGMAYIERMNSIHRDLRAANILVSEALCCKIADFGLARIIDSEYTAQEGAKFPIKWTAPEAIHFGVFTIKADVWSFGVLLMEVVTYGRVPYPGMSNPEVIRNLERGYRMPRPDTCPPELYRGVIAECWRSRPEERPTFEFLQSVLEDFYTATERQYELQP
# T4 sequence (P07947 whole entry): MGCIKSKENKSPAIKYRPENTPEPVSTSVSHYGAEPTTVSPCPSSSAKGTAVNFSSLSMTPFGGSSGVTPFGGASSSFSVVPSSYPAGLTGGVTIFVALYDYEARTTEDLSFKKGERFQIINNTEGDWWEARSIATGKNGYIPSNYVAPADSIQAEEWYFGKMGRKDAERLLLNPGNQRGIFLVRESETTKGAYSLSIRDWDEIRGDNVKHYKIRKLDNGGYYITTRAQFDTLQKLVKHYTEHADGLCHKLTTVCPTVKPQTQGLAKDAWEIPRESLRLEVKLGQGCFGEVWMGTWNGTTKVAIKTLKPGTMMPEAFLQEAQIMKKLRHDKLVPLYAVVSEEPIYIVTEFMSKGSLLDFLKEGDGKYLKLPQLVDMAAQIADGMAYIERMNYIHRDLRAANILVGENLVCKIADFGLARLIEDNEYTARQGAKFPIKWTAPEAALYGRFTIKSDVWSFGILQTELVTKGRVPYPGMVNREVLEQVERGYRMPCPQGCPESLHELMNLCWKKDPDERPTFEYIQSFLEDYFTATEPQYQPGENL
# T5 sequence (P09769 whole entry): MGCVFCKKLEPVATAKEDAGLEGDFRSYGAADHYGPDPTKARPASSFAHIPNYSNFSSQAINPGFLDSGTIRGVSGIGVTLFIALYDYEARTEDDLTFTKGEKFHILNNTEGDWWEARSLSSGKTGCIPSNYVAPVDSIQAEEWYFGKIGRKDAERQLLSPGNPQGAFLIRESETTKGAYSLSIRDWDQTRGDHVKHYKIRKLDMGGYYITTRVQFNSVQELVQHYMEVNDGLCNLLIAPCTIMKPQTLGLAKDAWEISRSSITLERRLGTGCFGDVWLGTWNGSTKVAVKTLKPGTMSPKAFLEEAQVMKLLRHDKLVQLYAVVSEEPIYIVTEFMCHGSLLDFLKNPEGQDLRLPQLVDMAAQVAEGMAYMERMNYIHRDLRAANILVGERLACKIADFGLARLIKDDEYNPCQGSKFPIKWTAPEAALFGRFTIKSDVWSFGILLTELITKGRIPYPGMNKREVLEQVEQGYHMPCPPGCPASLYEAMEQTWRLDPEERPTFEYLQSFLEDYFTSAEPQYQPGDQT
# T3 sequence (P12931 whole entry): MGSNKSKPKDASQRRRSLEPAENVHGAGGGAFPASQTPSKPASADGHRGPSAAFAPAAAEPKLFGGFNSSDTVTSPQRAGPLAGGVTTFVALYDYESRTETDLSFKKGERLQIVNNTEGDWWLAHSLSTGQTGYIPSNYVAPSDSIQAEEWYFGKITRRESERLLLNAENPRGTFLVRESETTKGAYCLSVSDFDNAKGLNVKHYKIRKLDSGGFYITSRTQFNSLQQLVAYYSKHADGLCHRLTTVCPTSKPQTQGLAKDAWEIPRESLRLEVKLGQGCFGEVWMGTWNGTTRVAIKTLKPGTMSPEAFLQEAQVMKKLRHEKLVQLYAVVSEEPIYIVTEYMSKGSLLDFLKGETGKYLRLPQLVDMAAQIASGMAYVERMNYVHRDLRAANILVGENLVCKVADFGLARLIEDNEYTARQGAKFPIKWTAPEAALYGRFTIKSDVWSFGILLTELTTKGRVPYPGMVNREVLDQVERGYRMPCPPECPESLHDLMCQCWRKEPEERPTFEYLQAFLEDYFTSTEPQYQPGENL
# T6 sequence (P00519 whole entry): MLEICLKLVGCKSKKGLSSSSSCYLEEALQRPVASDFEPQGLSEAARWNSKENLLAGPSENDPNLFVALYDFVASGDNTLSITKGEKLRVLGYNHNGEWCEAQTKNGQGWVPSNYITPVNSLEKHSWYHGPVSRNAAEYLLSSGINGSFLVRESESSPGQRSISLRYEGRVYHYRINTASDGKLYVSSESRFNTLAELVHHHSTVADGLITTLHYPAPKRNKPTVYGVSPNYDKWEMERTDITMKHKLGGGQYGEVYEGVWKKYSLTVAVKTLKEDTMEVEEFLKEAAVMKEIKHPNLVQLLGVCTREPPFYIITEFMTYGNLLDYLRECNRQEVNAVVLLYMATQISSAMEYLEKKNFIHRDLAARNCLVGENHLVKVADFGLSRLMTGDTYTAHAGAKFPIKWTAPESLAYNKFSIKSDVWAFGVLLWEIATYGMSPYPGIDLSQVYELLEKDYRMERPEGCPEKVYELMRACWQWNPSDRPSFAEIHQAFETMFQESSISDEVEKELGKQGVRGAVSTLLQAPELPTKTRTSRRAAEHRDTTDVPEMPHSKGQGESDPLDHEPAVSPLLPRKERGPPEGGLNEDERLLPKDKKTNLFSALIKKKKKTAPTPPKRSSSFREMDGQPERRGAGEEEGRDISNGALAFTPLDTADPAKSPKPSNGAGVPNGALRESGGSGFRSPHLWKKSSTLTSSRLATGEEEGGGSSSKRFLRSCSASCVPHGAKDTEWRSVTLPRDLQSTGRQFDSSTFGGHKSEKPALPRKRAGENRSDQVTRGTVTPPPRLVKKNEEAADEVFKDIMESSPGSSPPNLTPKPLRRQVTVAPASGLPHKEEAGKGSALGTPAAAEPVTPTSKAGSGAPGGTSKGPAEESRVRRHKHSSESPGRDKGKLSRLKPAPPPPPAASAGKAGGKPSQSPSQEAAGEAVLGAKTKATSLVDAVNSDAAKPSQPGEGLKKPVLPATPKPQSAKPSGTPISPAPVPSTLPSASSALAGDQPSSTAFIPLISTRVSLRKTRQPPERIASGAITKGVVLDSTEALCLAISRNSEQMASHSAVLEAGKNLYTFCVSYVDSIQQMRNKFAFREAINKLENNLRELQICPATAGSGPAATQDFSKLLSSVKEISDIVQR
# T2 sequence (Q08345 19-913): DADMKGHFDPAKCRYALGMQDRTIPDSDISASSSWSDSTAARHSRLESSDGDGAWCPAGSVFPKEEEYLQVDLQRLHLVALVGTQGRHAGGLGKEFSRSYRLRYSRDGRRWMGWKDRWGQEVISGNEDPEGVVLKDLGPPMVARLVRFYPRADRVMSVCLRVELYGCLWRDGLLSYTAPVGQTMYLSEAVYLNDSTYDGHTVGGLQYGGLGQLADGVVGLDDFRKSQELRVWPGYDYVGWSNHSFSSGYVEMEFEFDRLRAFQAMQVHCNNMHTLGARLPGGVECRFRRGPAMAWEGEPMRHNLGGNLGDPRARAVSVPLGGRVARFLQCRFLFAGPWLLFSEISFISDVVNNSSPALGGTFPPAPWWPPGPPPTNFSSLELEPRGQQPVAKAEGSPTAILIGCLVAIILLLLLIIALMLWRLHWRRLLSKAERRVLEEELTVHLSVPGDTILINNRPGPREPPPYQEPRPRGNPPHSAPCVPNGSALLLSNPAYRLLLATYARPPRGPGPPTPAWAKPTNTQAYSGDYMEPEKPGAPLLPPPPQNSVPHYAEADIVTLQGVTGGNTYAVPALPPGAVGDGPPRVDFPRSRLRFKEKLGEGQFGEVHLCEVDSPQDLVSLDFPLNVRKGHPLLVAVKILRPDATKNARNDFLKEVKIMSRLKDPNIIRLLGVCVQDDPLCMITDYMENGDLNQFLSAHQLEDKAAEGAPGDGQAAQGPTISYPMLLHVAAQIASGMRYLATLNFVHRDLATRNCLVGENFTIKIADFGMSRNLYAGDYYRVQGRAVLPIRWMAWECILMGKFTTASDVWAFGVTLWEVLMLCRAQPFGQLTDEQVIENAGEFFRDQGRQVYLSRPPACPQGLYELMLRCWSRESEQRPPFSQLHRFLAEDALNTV
smiles,measurement,setting,value
"Cc1ccc(Nc2ncc3c(n2)N(C)C(=O)N(c2cc(C(=O)N[C@H](C(=O)N4CCC[C@H]4C(=O)NC(C)(C)C(=O)N[C@@H](CC(C)C)C(=O)N(C)C)C(C)C)ccc2C)C3)cn1 [7a, (S)-N-(1-(((S)-1-(dimethylamino)-4-methyl-1-oxopentan-2-yl)amino)-2-methyl-1-oxopropan-2-yl)-1-((4-methyl-3-(1-methyl-7-((6-methylpyridin-3-yl)amino)-2-oxo-1,4-dihydropyrimido[4,5-d]pyrimidin-3(2H)-yl)benzoyl)-L-valyl)pyrrolidine-2-carboxamide] (X1-VP[Aib]L-NMe2)",IC50,Lck; ATP conc. 14 µM (Km),190 nM
same,IC50,Lck; ATP conc. 1 mM,21000 nM
same,mode of inhibition,Lck; IC50 at Km vs 1 mM ATP,ATP competitive kinase inhibitors
same,phosphorylated Lck levels at tyrosine 394,Lck (Y394),markedly reduced the phosphorylated Lck levels at tyrosine 394 residue in a concentration-dependent manner
same,IC50,DDR1,110 nM
same,IC50,c-Src,861 nM
same,IC50,Yes,495 nM
same,IC50,Fgr,201 nM
same,IC50,Abl1,378 nM
same,IC50,Blk,253 nM
same,IC50,p38a,> 10000 nM
